Reference: patent US4466952A, “Compositions and process for the treatment of cancer” (Indiana University Foundation, priority 1983, dated 1984)

Assays:
[1] = system: infantile female white swiss mouse; assay: Uterotropic Assay compared to estrone as standard; type: in vivo
[2] = target: T1, Calf uterine cytosolic estrogen receptor (Bos taurus, UniProt P49884); assay: Estrogen Receptor assay, competition with 6,7-3H2-estradiol; type: binding
T1 construct: Calf uterine cytosolic estrogen receptor; from tissue; host or cells: calf uterus, cytosol
T1 sequence (P49884 1-596): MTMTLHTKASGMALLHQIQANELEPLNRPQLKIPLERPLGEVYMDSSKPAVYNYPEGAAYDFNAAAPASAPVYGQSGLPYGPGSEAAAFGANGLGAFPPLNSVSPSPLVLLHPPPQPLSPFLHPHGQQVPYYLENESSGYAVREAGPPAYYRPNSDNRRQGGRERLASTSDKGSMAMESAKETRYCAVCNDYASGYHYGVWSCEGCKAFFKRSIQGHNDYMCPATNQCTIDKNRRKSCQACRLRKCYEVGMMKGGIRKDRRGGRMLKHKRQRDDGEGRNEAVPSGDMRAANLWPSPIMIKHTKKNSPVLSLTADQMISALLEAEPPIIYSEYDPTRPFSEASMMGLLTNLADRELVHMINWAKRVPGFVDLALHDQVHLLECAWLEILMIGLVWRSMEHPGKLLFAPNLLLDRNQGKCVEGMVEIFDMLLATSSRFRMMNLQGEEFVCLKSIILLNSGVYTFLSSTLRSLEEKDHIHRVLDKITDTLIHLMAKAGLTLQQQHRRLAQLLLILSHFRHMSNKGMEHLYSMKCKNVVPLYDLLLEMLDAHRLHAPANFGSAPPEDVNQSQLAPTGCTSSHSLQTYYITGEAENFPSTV

[3] = as described for the prior art; cited from earlier work
estrogen receptors = conditions: as described for the prior art; cited from earlier work

For “(17β)-17-(1,2-dicarbadodecaboran(12)-1-yl)estra-1,3,5(10)-triene-3,17-diol 17-acetate [III]”, the “uterotropic activity relative to estrone” value ([1]; 3×3 assay, 5-6 animals per dose, estrone as standard) was “about 80%”, the “response compared to estrone (uterotropic)” value ([1]; 4×4 assay, 9-10 animals per dose, estrone as standard) was 63% and the “uterotopic response of estrone” value ([1]; summary statement, relative to estrone) was “at least 63%”. For the same substance, the “estrophilic activity relative to estradiol-17β 3-carboranylmethyl ether” value ([2]; compared with value reported in Steroids 37, 223 (1981)) was “about two” and the “50% inhibition to binding” value ([2]; competition with 6,7-3H2-estradiol) was 1 Mole equivalent.
In the case of estradiol-17β 3-carboranylmethyl ether, the uterotopic activity [3] is listed as “very low” and the estrophilic activity (estrogen receptors) is listed as “very low”.
